# Where two headings read alike, the source gives them in different places.
# Assays:
# [1] = target: Src kinase (Homo sapiens, UniProt P12931); experiment: Z'-LYTE kinase assay (Invitrogen), Src; type: biochemical; parameters: full-length kinase in the Z-LYTE assay vs. kinase domain in the current study; purchased Millipore; conditions: Z'-LYTE; ATP near KM
# Procedure: Nine macrocycles enriched in the Src selection (FIG. 5) and synthesized as described above were assayed in vitro for the ability to inhibit Src kinase activity. Kinase activity was assayed in the presence of varying concentrations of macrocycle using the FRET-based Z′-LYTE assay (Invitrogen).
# Src IC50 determinations and single-point inhibition measurements were performed using Invitrogen's Z′-LYTE Tyr 02 assay kit according to the manufacturer's protocols. All kinase assays were performed at ATP concentrations near KM,ATP values, except where noted otherwise. Active human Src kinase was obtained from Millipore. For kinome profiling and IC50 determinations against non-Src kinases, compounds were submitted to Invitrogen's SelectScreen Kinase Profiling Service.
# [2] = target: T1, Src83-533 (chicken c-Src 83-533) (Gallus gallus, UniProt P00523); experiment: Kinase activity assay with longer Src construct including SH3 and SH2 domains; type: biochemical; conditions: Src wild-type construct containing SH3 and SH2 domains
# T1 construct: the regulatory SH3 and SH2 domains (chicken c-Src 83-533); made in house
# Excerpt: (§1) Kinase domain constructs of human c-Abl (residues 229-512), chicken c-Src (residues 251-533 and residues 83-533), murine Lck (residues 227-509), and human Hck (residues 166-445) were expressed as previously described (Seeliger, Young et al. 2005; Seeliger, Nagar et al. 2007; the entire contents of each of which are incorporated by reference herein). Mutations were introduced into chicken c-Src (residues 251-533) (T338I, C277Q, L297M) by site-directed mutagenesis and verified by DNA sequencing.
# In vitro kinase inhibition assays were performed using either a continuous spectrophotometric assay or a FRET-based endpoint assay. […]
# To address this discrepancy, the two major differences between the fluorescent peptide-based Z′-LYTE assay and the continuous spectrophotometric assay employed here were investigated: the kinase construct used (full-length kinase in the Z-LYTE assay vs. kinase domain in the current study) and the peptide identity and concentration (5 μM fluorescent Abl-optimal substrate peptide in the previous study vs. 100 μM Src-optimal substrate peptide in the current study). […] The IC50 values determined for MC1.2 and MC4.1 were close to the concentration of the kinase used in the assay and therefore these values only represent an upper estimate of the real potency of these compounds.
# [3] = target: T2, Src kinase domain (chicken c-Src residues 251-533) (Gallus gallus, UniProt P00523); experiment: Continuous spectrophotometric kinase activity assay; type: biochemical; conditions: Src kinase domain; 5 μM ATP, 100 μM Src optimal peptide
# T2 construct: chicken c-Src (residues 251-533 and residues 83-533); made in house
# [4] = target: T3, Src kinase domain (Gallus gallus, UniProt P00523); experiment: Fluorescence anisotropy binding assay; parameters: species or system chicken; conditions: fluorescein-labeled macrocycle, read-out: dissociation constant (KD)
# T3 construct: chicken c-Src (residues 251-533 and residues 83-533); made in house
# Procedure: The change in fluorescence anisotropy of fluorescein-labeled MC1, MC4 and MC9 at 518 nm upon excitation at 492 nm was monitored with a HORIBA Jobin Yvon FluoroMax-4 (Edison, N.J.) spectrofluorimeter. Kinase was titrated to 0.5 μM of the fluorescently labeled macrocycle in 100 mM Tris pH 8.0, 10 mM MgCl2 at 25° C. After equilibration, the increase in the fluorescence anisotropy of the fluorescently labeled ligand was recorded and fitted against a quadratic binding equation in Kaleidagraph (Synergy Software, Reading Pa.) to yield the dissociation constant KD.
# To clarify the inhibitory mechanism of the compounds further, the binding affinity of fluorescently labeled MC1, MC4, and MC9 to Src kinase domain was determined in a fluorescence anisotropy assay (FIG. 21).
# [5] = tested on: Src Thr338Ile; experiment: Inhibition of Src gatekeeper mutant; type: biochemical, chicken
# Excerpt: as §1
# For the FRET-based endpoint assay, kinase assays were performed using Invitrogen's Z′-LYTE kinase assay using the Tyr 02 substrate peptide (based upon the optimal Abl substrate peptide […]) according to the manufacturer's instructions. Assays were performed at near KM ATP concentrations for full-length c-Src and full-length c-Src T338I-50 μM and 7 μM, respectively.
# Chain of Src kinase (P12931 whole entry, the tested form may be a part): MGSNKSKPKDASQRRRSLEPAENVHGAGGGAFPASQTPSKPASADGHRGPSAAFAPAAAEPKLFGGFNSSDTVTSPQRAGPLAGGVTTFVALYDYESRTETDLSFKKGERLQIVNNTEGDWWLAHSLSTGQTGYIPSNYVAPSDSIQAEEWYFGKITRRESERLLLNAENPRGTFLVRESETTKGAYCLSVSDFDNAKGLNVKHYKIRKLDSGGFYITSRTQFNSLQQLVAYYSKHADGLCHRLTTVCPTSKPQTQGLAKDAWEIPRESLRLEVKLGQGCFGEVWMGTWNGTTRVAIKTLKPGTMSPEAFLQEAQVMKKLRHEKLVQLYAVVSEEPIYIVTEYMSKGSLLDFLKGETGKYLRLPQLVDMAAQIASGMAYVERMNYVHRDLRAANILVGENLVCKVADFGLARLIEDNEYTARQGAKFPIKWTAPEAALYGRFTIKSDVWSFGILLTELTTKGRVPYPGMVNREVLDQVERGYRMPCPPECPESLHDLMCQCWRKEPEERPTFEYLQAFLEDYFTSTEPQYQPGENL
smiles,measurement,setting,value
NC(=O)[C@@H]1CCNC(=O)[C@H](CCCNC(=O)c2cnccn2)NC(=O)[C@H](CC2CCCCC2)NC(=O)[C@H](C/C=C/c2ccccc2)NC(=O)/C=C\C(=O)N1 [cis-A11-B8-C10-D7],IC50,[1],25 µM
same,IC50,[2],0.39 µM
same,IC50,[3],69 µM
same,Kd,[4]; 250 μM AMP-PNP,12.6 µM
same,Kd,[4]; no competitor,3.6 µM
same,lower potency against gatekeeper mutant than against Src wild-type,[5],about 3 fold
same,IC50,[5]; Src Thr338Ile containing SH3 and SH2 domains,1 µM

# Source: patent US8975232B2, “Macrocyclic kinase inhibitors and uses thereof” (President and Fellows of Harvard College, priority 2010, dated 2015)
